The values that follow come from US5922335A, “Uses for ascorbyl-phosphoryl-cholesterol in topical compositions” (Avon Products, Inc., priority 1998, dated 1999).

The nature of series [1]: Hydroxyl radical scavenging activity by Electron Spin Resonance (DMPO, H2O2/FeSO4). To be noted: for Relative Peak Height (RPH): control 100.0; for Peak Height: pH 7.4. The class given is biochemical. On the procedure:
Hydroxy radical scavenging activity was measured according to an art accepted method. (See Liu et al. Antioxidant Action of Guilingji in the Brain of Rats with FeCl3-induced Epilepsy, Free Radical Biol. & Med., (9:451-545, 1990.) Sample solutions of 3'-(L-ascorbyl-2-o-phosphoryl)-cholesterol of varying concentrations were prepared by dissolving 3'-(L-ascorbyl-2-o-phosphoryl)-cholesterol in 0.1M potassium phosphate buffer (pH=7.4). The following solutions were also prepared: 0.18M 5,5-dimethyl-1-pyrooline-N-oxide (hereinafter "DMPO") in 0.1M potassium phosphate buffer; 2 mM hydrogen peroxide (hereinafter "H2 O2 ") in 0.1M potassium phosphate buffer; and 0. 2 mM iron(II) sulfate (hereinafter "FeSO4 ") in distilled water. Fifty (50) […] of each of the aforedescribed solutions and […] of a sample solution were mixed for thirty (30) seconds and then placed in a flat cell. The Electron Spin Resonance was then measured using Free Radical Monitor JES-FR30, manufactured by JEOL, Tokyo, Japan, (hereinafter "FRM"). The FRM normalized all spectra for calculation by using an internal standard of manganese dioxide (hereinafter "MnO2 "). All peak heights were compared to the constant MnO2 signal generated. Each sample peak height was then divided by the MnO2 peak height to provide a relative peak height (hereinafter "RPH").

A further series relates to human skin fibroblasts. Nature of the series: Collagen biosynthesis by cultured human skin fibroblasts ([3H]-Proline Incorporation Assay). To be noted: 48 hours; for collagen biosynthesis, Dpm × 10^-3 / mg protein: control 1.55; for collagen biosynthesis, Dpm × 10^-5 / mg DNA: control 14.43. The class given is cell-based. On the procedure: An art-recognized [^3 H]-Proline Incorporation Assay was performed with differne does of 3'-(L-ascorbyl-2-o-phosphoryl)-cholesterol. Juva, Anal. Biocheml, Vol, 15, PAGES 77-83 (1966); Booth, Biochem. Biophys. Acta, Vol. 675, pages 117-122 (1981).
After the first 24 hours [^3 H]-labeled proline was added to the culture. Following the second 24 hour period, the cells are harvested and prepared for the collagen biosynthesis assay.
Protease inhibitors are added to prevent degradation of collagen and other proteins. The cell layer is scraped into a solution containing 0.4 M NaCl and 0.01 M Tris (pH 7.5). Extracts are sonicated to disrup cell membranes. Saparate volumes of the cell-containing solution (1 ml each) are dialyzed overnight against several changes of deionized water. The retentate is removed from dialysis and hydrolyzed in 6 N hydrochloric acid at 120 degrees C. overnight. The assay is performed using an oxidation process with 2 M chloramine-T. Samples are analyzed for radioactive counts, with represent the amount of newly synthesized [^3 H]-labeled proline - - - an index for new collagen synthesis.

The test system of the next series is Human elastin promoter. As to the kind of experiment: Inhibition of elastin gene promoter activity in UVB-irradiated cultured dermal fibroblasts transfected with promoter-reporter molecules. To be noted: for % Inhibition of elastin promoter activity at 6 hours / % Inhibition of elastin promoter activity at 12 hours: 100 μ Solution. It is filed as cell-based. The procedure: An art recognized method for evaluating the molecular events associated with increased elastin production was performed by measuring the activity of the elastin gene promoter, which is responsible for the activation of elastin gene transcription. (Bernstein, E. et al. 1995 Jour. Invest. Dermatol. 105:269-273).
Human elastin promoter molecules were linked to reporter molecules. The promoter-reporter linked molecules were then transfected into cultured dermal fibroblasts. Previous studies indicate that exposure of cultured fibroblasts to UVB radiation results in upregulation of elastin promoter activity. However, it is believed that UVA radiation may have an indirect effect on solar-induced elastosis.
Solutions of 1 μM to 100 μM of each 3'-(L-ascorbyl-2-o-phosphoryl)-cholesterol and ascorbic acid were produced. These solutions were then supplied to cultured fibroblasts. The control consisted of cultured fibroblasts in media containing neither 3'-(L-ascorbyl-2-o-phosphoryl)-cholesterol nor ascorbic acid.
The cultured fibroblasts were irradiated with single, dose of UVB radiation (5.5 mJ/cm^2) using an FS-40 light source. The spectrum of effectiveness of the FS-40 light source is estimated at 80 to 90% attributable to UVB. It is believed that 10 to 20% of the effectiveness of the FS-40 light source is attributable to […]. The activity attributable to UVA is believed to be negligible.

Series [2] concerns cultured human keratinocytes. As to the kind of experiment: Triglyceride biosynthesis in cultured normal human keratinocytes (3H-acetate incorporation). To be noted: 10 mM; 18.5 hours, then 3 hours with 3H-acetate; FIG. 1. It is filed as cell-based. On the procedure: Normal human keratinocytes (hereinafter "NHK") were cultured and then divided into three groups. Each of the three groups were grown in various media for 18.5 hours, the various media being as follows:
1 mM "cold" sodium acetate
10 mM Cholesterylmonophosphate (CMP)
10 mM 3'-(L-ascorbyl-2-o-phosphoryl)-cholesterol
At the conclusion of 18.5 hours, 3H-acetate sodium salt (product number NEN#003H, 6.08 ci/mMole) was added to each group at 3 uCi/ml. The three groups were incubated at 37° C. for an additional 3 hours.
At the conclusion of the incubation period, each group was washed three times with iced PBS. The cells were then collected, sonicated and aliquated for lipid extraction using Bligh/Dyer method and for protein quantification.
The lipid extracts were subfracationated by Thin Layer Chromatography. Proteins were quantitated by Bradford assay.
Triglyceride biosythesis in cultured human keratinocytes is measured as a function of incorporation of 3-H acetate. The incorporation of 3-H acetate is expressed as counts per minute per milligram of 3-H acetate (cpm/mg 3H acetate). The results are illustrated in FIG. 1.

The nature of series [3]: Superoxide anion scavenging by Electron Spin Resonance (hypoxanthine-xanthine oxidase system). It is filed as biochemical. To be noted: about 2.5 mg/ml; pH 7.4. The procedure: Superoxide anion scavenging ability was estimated according to the method described in the Liu et al. article noted above. Superoxide anion was generated by a hypoxanthine (hereinafter "HPX")-xanthine oxidase (hereinafter "XOD") system. The following solutions were prepared: 50 μl of 4 mM HPX in 0.1M potassium phosphate buffer; 30 μl of dimethyl sulfoxide, 50 μL of sample; 20 μL OF […] DMPO in 0.1M potassium phosphate buffer; and, 50 μl of XOD (0.4 units/ml) in 0.1M potassium phosphate buffer. The pH of the 0.1M potassium phosphate buffer was 7.4. The solutions of HPX, DMSO, DMPO, XOD and sample were mixed and transferred into a 200 μl-capacity flat cell. Electron Spin Resonance spectra was analyzed.

On to `CC(C)CCC[C@@H](C)[C@H]1CC[C@H]2[C@@H]3CC=C4C[C@@H](OP(=O)(O)OC5=C(O)[C@@H]([C@@H](O)CO)OC5=O)CC[C@]4(C)[C@H]3CC[C@]12C` [3'-(L-ascorbyl-2-o-phosphoryl)-cholesterol], for which, in series [1], the “hydroxyl radical scavenging (in words)” value is given as “effective scavenger of hydroxyl radicals”. Moreover, the “Relative Peak Height (RPH)” value in series [1] (0.0391 mg/ml) is reported as 100.0; in series [1] (0.0782 mg/ml), 85.0; in series [1] (0.1563 mg/ml), 78.1; in series [1] (0.3125 mg/ml), 57.5; in series [1] (0.6250 mg/ml), 30.6; in series [1] (1.2500 mg/ml), 9.4. In addition, in series [1] (2.5000 mg/ml), the “Relative Peak Height (RPH)” value was determined as 5.6. The “Peak Height” value was determined as 1.60 in series [1] (0.0391 mg/ml); 1.36 in series [1] (0.0782 mg/ml); 1.25 in series [1] (0.1563 mg/ml); 0.92 in series [1] (0.3125 mg/ml); 0.49 in series [1] (0.6250 mg/ml); 0.15 in series [1] (1.2500 mg/ml). Further, the “Peak Height” value in series [1] (2.5000 mg/ml) is on record as 0.09. The “dose dependence of stimulation in human skin fibroblasts (in words)” value with human skin fibroblasts (11.3 to 45 μg/ml) is recorded as “increased production of new human skin fibroblasts in a dose dependent manner”. In addition, the entries for the “Stimulation - fold Increase of collagen biosynthesis” value in the series on human skin fibroblasts (11.3 μl/ml), in the series on human skin fibroblasts (22.5 μl/ml) and in the series with human skin fibroblasts (45.0 μl/ml) were 2.9 fold, 3.3 fold and 6.4 fold, respectively. Also, the “collagen biosynthesis, Dpm × 10^-3 / mg protein” value in the series with human skin fibroblasts (11.3 μl/ml) is listed as 5.17 Dpm × 10^-3 / mg protein; in the series with human skin fibroblasts (22.5 μl/ml), 5.02 Dpm × 10^-3 / mg protein; in the series with human skin fibroblasts (45.0 μl/ml), 11.07 Dpm × 10^-3 / mg protein. Besides, the “collagen biosynthesis, Dpm × 10^-5 / mg DNA” value in the series with human skin fibroblasts (11.3 μl/ml) is listed as 42.07 Dpm × 10^-5 / mg DNA; in the series on human skin fibroblasts (22.5 μl/ml), 48.31 Dpm × 10^-5 / mg DNA; in the series on human skin fibroblasts (45.0 μl/ml), 92.25 Dpm × 10^-5 / mg DNA. For the same compound, the “effect on elastin promoter activity in cultured fibroblasts (in words)” value in the series with Human elastin promoter (1 μM to 100 μM, UVB 5.5 mJ/cm^2) is given as “decreased elastin promoter activity in cultured fibroblasts in a dose dependent manner”. Also, the “degree of elastin promoter inhibition compared with ascorbic acid (in words)” value in the series on Human elastin promoter (1 μM to 100 μM, compared to ascorbic acid) was “exhibits a far superior degree of elastin promoter inhibition”. For the same compound, the “% Inhibition of elastin promoter activity at 6 hours” value in the series with Human elastin promoter (UVB 5.5 mJ/cm^2) is recorded as 43%. Besides, the “% Inhibition of elastin promoter activity at 12 hours” value with Human elastin promoter (UVB 5.5 mJ/cm^2) is 34%. Further, the “duration of elastin promoter inhibition compared with ascorbic acid (in words)” value in the series on Human elastin promoter (compared to ascorbic acid) is listed as “inhibits elastin promoter activity for a significantly longer period of time than ascorbic acid”. Also, the “triglyceride synthesis in cultured human keratinocytes (in words)” value in series [2] is reported as “significantly increases triglyceride synthesis in cultured human keratinocytes”. The “inhibition of the formation of the superoxide” value in series [3] was found to be 50%.
As to `O=C1O[C@H]([C@@H](O)CO)C(O)=C1O` [Ascorbic Acid, ascorbic acid, reference compound], in the series with Human elastin promoter (UVB 5.5 mJ/cm^2), the “% Inhibition of elastin promoter activity at 6 hours” value amounted to 23% and the “% Inhibition of elastin promoter activity at 12 hours” value amounted to 0%.
